In the NIST ThermoML archive (doi:10.1021/acs.jced.9b00536):

Assay: wn = mass fraction of the nth substance listed
Conditions: 100 kPa, Liquid, Vibrating tube method

[Na+].[OH-] [sodium hydroxide] + O
mass density [kg/m3]
Conditions	303.15 K	313.15 K	323.15 K	333.15 K	343.15 K	353.15 K
w1 = 0.2	1213.8	1208	1202.1	1196.1	1190	1184.4
w1 = 0.21	1223.5	1219	1213	1206.8	1200.5	1194
w1 = 0.22	1236.2	1230.3	1224.3	1218.1	1212	1206.4
w1 = 0.23	1246.1	1240.2	1234.1	1227.9	1221.8	1216.2
w1 = 0.24	1256.6	1250.6	1244.4	1238.3	1232.2	1226.7
w1 = 0.25	1268	1262	1256	1249.5	1243	1236.5
w1 = 0.26	1279.4	1273.3	1267.1	1260.8	1254.6	1249
w1 = 0.27	1289.2	1283	1276.7	1270.3	1264.1	1258.3
w1 = 0.28	1299	1293.7	1287.4	1281	1274.7	1269.1
w1 = 0.29	1311	1304.5	1298.5	1292	1285.5	1278.5
w1 = 0.3	1321.7	1315.4	1308.9	1302.4	1295.9	1289.9
w1 = 0.31	1330.9	1324.5	1318	1311.4	1304.9	1298.7
w1 = 0.32	1343.4	1337	1330.4	1323.8	1317.2	1311.1
w1 = 0.33	1353.5	1347	1340.4	1333.7	1327.1	1321
w1 = 0.34	1364.3	1357.8	1351.1	1344.4	1337.8	1331.6
w1 = 0.35	1372.5	1365.9	1359.2	1352.5	1345.9	1339.8
w1 = 0.36	1381.8	1375.5	1369	1362.9	1356.8	1349.8
w1 = 0.37	1393.6	1386.8	1380	1373.2	1366.5	1360.2
w1 = 0.38	1403.3	1396.5	1389.6	1382.8	1376.1	1369.9
w1 = 0.39	1413.5	1406.5	1400	1393	1386	1379.5
w1 = 0.4	1423.3	1416.3	1409.3	1402.4	1395.6	1389.6
w1 = 0.41	1432.9	1425.9	1418.9	1412	1405.1	1398.7
w1 = 0.42	1443.2	1436.2	1429.2	1422.2	1415.4	1409
w1 = 0.43	1452.9	1445.8	1438.8	1431.8	1425	1418.6
w1 = 0.44	1460.9	1453.8	1446.7	1439.7	1432.8	1426.3
w1 = 0.45	1470.7	1463.5	1456.5	1449.5	1442.6	1436.2
w1 = 0.46	1479.6	1472.7	1465.9	1459	1451.5	1445.2
w1 = 0.47	1489.7	1482.5	1475.3	1468.3	1461.4	1454.8
w1 = 0.48	1499.9	1492.6	1485.4	1478.3	1471.4	1465
w1 = 0.49	1509.4	1502.1	1494.9	1487.9	1481	1474.6
w1 = 0.5	1518.4	1511.1	1503.9	1496.9	1490	1483.6
